Test results published in the NIST ThermoML archive (doi:10.1021/acs.jced.8b00008).

Assay: xn = mol fraction of the nth substance listed
Settings: for viscosity / speed of sound / mass density: 102 kPa, Liquid; for viscosity: Concentric cylinders viscometry; for speed of sound: Single path-length method; for mass density: Vibrating tube method; for surface tension liquid-gas: 296 K, Pendant drop shape

CCC1CCCCC1 [ethylcyclohexane] + CCCCCCCCCCCCCCCC
Settings	mass density [kg/m3]	speed of sound [m/s]	viscosity [mPa·s]
293.15 K, x1 = 0.0997	773.92	1353.2	3.17
293.15 K, x1 = 0.1997	774.6	1348.2	2.87
293.15 K, x1 = 0.3	775.39	1343.1	2.57
293.15 K, x1 = 0.4	776.26	1337.8	2.26
293.15 K, x1 = 0.4999	777.42	1331.4	1.99
293.15 K, x1 = 0.55	778.05	1328.1	1.89
293.15 K, x1 = 0.6	778.71	1325.3	1.73
293.15 K, x1 = 0.7001	780.35	1317.5	1.48
293.15 K, x1 = 0.8003	782.34	1309.8	1.25
293.15 K, x1 = 0.9	784.8	1301.6	1.04
303.15 K, x1 = 0.0997	766.96	1315.5	2.54
303.15 K, x1 = 0.1997	767.62	1310.3	2.33
303.15 K, x1 = 0.3	768.36	1305.1	2.1
303.15 K, x1 = 0.4	769.18	1299.6	1.87
303.15 K, x1 = 0.4999	770.25	1292.9	1.67
303.15 K, x1 = 0.55	770.84	1289.4	1.58
303.15 K, x1 = 0.6	771.45	1286.4	1.46
303.15 K, x1 = 0.7001	772.96	1277.9	1.27
303.15 K, x1 = 0.8003	774.78	1269.5	1.07
303.15 K, x1 = 0.9	777.02	1260.2	0.896
313.15 K, x1 = 0.0997	760.01	1278.6	2.07
313.15 K, x1 = 0.1997	760.63	1273.4	1.9
313.15 K, x1 = 0.3	761.32	1268	1.74
313.15 K, x1 = 0.4	762.08	1262.2	1.56
313.15 K, x1 = 0.4999	763.06	1255.2	1.4
313.15 K, x1 = 0.55	763.61	1251.5	1.34
313.15 K, x1 = 0.6	764.16	1248.3	1.24
313.15 K, x1 = 0.7001	765.54	1239.2	1.08
313.15 K, x1 = 0.8003	767.19	1230	0.93
313.15 K, x1 = 0.9	769.2	1219.7	0.782
323.15 K, x1 = 0.0997	753.07	1242.7	1.73
323.15 K, x1 = 0.1997	753.64	1237.2	1.595
323.15 K, x1 = 0.3	754.28	1231.6	1.46
323.15 K, x1 = 0.4	754.97	1225.6	1.34
323.15 K, x1 = 0.4999	755.86	1218.3	1.21
323.15 K, x1 = 0.55	756.35	1214.3	1.15
323.15 K, x1 = 0.6	756.84	1211	1.09
323.15 K, x1 = 0.7001	758.08	1201.2	0.948
323.15 K, x1 = 0.8003	759.55	1191.3	0.822
323.15 K, x1 = 0.9	761.34	1180	0.693
333.15 K, x1 = 0.0997	746.13	1207.7	1.46
333.15 K, x1 = 0.1997	746.63	1202.1	1.355
333.15 K, x1 = 0.3	747.21	1196.2	1.25
333.15 K, x1 = 0.4	747.82	1189.9	1.16
333.15 K, x1 = 0.4999	748.62	1182.3	1.03
333.15 K, x1 = 0.55	749.06	1178	0.99
333.15 K, x1 = 0.6	749.49	1174.6	0.937
333.15 K, x1 = 0.7001	750.57	1164.1	0.821
333.15 K, x1 = 0.8003	751.86	1153.4	0.716
333.15 K, x1 = 0.9	753.41	1141.2	0.607

Settings	surface tension liquid-gas [mN/m]
x1 = 0.0997	26.8
x1 = 0.1997	26.7
x1 = 0.3	26.4
x1 = 0.4	26.2
x1 = 0.4999	26.3
x1 = 0.55	26.2
x1 = 0.6	26
x1 = 0.7001	25.9
x1 = 0.8003	25.7
x1 = 0.9	25.4
